These are literature values, as cited in paper PMC9851200, “Multiparameter phenotypic screening for endogenous TFEB and TFE3 translocation identifies novel chemical series modulating lysosome function” (Autophagy, 2022).

Design in all cases: method as in original PKIS2 published data
The target of series [1] is T1, kinases (KINOMEscan panel) (Homo sapiens, UniProt Q8N568).
T1 sequence (Q8N568 1-766): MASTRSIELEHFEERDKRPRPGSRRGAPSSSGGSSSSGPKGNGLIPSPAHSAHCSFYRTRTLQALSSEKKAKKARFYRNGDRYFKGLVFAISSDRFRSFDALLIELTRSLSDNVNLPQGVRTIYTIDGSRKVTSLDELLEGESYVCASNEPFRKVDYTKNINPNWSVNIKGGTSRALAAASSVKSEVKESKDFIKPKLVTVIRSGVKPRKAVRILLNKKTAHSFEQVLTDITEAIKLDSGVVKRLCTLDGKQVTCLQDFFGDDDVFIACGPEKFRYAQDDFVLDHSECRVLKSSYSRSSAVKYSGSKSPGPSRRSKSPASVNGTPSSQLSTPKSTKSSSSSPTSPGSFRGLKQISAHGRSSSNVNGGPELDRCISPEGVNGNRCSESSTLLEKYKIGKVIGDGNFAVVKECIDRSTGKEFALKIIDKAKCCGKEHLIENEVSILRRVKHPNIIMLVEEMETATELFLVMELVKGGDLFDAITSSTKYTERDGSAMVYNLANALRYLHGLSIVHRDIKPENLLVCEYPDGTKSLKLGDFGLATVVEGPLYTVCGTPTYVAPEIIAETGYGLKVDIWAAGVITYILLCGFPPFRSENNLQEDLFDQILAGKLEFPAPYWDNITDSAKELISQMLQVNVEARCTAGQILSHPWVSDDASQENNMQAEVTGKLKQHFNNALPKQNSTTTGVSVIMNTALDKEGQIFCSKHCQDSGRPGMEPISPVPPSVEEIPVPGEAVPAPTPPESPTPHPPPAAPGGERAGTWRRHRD
The conditions noted are these: Published KINOMEscan; ref original PKIS2 published data; cited from earlier work.

The target in series [2] is kinases (KINOMEscan panel) (Homo sapiens, UniProt P12931). Conditions: SRC; Published KINOMEscan; ref original PKIS2 published data; cited from earlier work.
Sequence of kinases (KINOMEscan panel) (Homo sapiens, UniProt P12931) (P12931 whole entry): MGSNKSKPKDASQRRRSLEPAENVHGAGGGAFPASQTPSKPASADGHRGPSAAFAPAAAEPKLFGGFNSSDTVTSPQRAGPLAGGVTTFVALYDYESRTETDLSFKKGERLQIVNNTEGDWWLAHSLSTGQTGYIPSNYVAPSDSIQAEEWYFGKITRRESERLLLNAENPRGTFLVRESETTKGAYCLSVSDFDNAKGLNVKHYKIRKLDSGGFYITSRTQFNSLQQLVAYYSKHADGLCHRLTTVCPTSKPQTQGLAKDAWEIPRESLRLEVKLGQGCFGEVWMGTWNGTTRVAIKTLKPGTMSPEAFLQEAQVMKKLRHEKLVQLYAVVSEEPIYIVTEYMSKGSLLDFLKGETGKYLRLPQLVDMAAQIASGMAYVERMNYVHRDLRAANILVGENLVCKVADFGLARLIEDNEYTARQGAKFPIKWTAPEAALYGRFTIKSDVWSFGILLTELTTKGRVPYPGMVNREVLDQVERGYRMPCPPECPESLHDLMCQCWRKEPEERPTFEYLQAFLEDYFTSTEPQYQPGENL
Series [3] deals with kinases (KINOMEscan panel) (Homo sapiens, UniProt P42336). Conditions: kinase PIK3CA; Published KINOMEscan; ref original PKIS2 published data; cited from earlier work.
Sequence of kinases (KINOMEscan panel) (Homo sapiens, UniProt P42336) (P42336 whole entry): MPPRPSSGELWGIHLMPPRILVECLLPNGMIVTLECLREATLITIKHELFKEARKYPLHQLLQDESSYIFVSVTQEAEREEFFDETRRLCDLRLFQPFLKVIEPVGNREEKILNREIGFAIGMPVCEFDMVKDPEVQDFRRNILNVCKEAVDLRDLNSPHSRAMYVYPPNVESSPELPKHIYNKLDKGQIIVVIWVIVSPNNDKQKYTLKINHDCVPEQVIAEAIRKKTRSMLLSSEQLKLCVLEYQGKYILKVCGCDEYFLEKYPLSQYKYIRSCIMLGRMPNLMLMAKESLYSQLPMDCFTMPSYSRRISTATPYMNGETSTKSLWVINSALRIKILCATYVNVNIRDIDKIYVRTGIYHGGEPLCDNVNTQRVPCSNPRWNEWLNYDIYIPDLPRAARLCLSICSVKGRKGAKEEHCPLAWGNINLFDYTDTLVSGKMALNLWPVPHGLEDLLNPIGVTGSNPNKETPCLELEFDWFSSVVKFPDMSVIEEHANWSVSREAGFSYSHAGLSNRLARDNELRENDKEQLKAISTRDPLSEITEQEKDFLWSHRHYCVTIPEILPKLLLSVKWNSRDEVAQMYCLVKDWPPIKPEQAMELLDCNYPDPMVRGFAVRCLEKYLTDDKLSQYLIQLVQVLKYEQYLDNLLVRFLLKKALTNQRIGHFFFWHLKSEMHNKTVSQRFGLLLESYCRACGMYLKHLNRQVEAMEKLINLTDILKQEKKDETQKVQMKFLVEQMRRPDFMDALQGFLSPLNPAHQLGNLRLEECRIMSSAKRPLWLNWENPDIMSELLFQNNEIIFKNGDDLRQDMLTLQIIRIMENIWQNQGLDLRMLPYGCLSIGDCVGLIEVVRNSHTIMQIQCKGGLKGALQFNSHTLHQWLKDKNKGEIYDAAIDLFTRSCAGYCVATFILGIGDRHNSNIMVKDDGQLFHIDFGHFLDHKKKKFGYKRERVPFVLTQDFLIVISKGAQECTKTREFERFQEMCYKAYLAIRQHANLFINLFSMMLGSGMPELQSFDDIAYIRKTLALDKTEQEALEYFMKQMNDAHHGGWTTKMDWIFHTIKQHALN
For series [4], the target named is kinases (KINOMEscan panel) (Homo sapiens, UniProt Q16816). Conditions: PHKG1; Published KINOMEscan; ref original PKIS2 published data; cited from earlier work.
Sequence of kinases (KINOMEscan panel) (Homo sapiens, UniProt Q16816) (Q16816 whole entry): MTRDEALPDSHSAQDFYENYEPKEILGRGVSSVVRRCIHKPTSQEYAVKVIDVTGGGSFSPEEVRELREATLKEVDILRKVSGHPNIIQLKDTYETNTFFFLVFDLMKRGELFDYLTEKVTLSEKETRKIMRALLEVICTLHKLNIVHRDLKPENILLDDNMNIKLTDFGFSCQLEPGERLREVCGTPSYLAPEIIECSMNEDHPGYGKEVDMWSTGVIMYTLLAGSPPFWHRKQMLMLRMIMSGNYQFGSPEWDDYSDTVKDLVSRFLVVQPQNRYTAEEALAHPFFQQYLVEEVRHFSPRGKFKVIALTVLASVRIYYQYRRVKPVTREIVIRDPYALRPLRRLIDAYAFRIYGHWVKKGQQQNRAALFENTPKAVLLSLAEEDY
Series [5] deals with kinases (KINOMEscan panel) (Homo sapiens, UniProt Q9H3Y6). Conditions: Published KINOMEscan; ref original PKIS2 published data; cited from earlier work.
Sequence of kinases (KINOMEscan panel) (Homo sapiens, UniProt Q9H3Y6) (Q9H3Y6 whole entry): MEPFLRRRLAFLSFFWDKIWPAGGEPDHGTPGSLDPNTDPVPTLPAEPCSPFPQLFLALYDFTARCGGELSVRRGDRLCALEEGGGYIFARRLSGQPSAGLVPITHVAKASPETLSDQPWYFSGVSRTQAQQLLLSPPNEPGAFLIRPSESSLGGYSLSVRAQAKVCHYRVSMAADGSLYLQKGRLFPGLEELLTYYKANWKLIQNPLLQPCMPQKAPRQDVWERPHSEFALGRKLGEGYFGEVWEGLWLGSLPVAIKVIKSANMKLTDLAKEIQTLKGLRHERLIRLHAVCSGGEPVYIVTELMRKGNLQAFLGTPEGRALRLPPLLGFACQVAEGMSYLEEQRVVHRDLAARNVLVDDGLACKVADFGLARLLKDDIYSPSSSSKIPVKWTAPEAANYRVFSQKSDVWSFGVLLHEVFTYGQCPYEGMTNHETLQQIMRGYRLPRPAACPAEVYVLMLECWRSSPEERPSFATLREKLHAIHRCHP
For series [6], the target named is kinases (KINOMEscan panel) (Homo sapiens, UniProt P22455). Conditions: Published KINOMEscan; ref original PKIS2 published data; cited from earlier work.
Sequence of kinases (KINOMEscan panel) (Homo sapiens, UniProt P22455) (P22455 22-802): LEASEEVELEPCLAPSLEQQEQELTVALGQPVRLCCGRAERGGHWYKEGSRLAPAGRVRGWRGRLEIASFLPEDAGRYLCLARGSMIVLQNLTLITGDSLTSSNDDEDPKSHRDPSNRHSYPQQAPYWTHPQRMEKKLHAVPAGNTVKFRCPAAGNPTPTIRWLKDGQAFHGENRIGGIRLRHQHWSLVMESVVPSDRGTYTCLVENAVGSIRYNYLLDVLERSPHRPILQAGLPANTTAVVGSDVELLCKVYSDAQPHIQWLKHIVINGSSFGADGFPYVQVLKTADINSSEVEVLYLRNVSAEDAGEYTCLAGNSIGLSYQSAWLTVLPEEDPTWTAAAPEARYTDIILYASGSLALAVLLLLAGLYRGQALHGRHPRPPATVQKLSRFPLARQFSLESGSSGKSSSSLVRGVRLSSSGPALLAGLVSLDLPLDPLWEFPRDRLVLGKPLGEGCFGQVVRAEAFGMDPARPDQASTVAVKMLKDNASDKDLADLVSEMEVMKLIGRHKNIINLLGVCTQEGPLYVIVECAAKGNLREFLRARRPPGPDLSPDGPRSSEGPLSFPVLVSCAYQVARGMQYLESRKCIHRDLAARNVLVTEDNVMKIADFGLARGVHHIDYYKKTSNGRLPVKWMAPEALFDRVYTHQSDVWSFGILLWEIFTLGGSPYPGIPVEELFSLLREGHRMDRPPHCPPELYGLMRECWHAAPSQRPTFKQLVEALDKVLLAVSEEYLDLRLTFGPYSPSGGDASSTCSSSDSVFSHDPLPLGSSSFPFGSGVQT
For series [7], the target named is T2, kinases (KINOMEscan panel) (Homo sapiens, UniProt Q8IVH8).
T2 sequence (Q8IVH8 1-894): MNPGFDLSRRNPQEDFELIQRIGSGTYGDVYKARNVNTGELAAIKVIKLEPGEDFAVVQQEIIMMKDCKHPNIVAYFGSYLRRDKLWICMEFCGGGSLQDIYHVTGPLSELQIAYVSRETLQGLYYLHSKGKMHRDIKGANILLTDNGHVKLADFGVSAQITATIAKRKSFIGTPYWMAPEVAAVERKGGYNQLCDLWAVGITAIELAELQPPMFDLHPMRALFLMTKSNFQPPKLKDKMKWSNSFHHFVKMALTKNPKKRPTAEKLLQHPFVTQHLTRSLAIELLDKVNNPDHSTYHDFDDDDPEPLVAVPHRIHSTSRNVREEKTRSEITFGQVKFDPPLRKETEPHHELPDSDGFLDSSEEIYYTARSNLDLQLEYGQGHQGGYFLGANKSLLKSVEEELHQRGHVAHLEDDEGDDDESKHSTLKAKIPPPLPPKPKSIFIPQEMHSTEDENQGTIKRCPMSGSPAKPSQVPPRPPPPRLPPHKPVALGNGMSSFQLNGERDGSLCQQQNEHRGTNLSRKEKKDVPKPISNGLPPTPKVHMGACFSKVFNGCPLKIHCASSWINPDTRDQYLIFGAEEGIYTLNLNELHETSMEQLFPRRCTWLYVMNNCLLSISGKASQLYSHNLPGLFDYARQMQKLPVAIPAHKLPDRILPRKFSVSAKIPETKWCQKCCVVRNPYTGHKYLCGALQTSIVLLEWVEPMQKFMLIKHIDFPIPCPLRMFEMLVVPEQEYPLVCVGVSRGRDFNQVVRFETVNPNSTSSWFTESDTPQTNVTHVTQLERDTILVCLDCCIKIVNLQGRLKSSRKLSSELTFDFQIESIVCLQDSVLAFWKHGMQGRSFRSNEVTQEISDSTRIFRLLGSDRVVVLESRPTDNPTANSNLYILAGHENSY
Conditions: Published KINOMEscan; ref original PKIS2 published data; cited from earlier work.

Series [8] addresses kinases (KINOMEscan panel) (Homo sapiens, UniProt O95747). The conditions noted are these: Published KINOMEscan; ref original PKIS2 published data; cited from earlier work.
In series [9] the target is T3, kinases (KINOMEscan panel) (Homo sapiens, UniProt P42681).
T3 sequence (P42681 1-527): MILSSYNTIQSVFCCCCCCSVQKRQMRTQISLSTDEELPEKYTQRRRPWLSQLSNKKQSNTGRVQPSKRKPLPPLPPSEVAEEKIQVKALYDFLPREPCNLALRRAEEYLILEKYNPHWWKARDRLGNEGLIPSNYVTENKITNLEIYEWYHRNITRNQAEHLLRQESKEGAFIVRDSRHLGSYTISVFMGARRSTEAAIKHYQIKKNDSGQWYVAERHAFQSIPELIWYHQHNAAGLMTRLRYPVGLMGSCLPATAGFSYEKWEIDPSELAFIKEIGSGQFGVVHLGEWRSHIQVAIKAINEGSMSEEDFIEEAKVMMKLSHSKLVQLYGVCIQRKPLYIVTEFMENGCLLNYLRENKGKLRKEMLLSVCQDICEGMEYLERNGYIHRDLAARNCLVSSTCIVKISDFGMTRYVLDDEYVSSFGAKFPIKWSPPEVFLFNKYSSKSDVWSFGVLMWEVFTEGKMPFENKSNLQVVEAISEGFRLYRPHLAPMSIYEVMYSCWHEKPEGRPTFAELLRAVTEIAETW
The conditions noted are these: kinase TXK; Published KINOMEscan; ref original PKIS2 published data; cited from earlier work.

Series [10] has as its target kinases (KINOMEscan panel) (Homo sapiens, UniProt P07948). The conditions noted are these: Published KINOMEscan; ref original PKIS2 published data; cited from earlier work.

Sequence of kinases (KINOMEscan panel) (Homo sapiens, UniProt P07948) (P07948 whole entry): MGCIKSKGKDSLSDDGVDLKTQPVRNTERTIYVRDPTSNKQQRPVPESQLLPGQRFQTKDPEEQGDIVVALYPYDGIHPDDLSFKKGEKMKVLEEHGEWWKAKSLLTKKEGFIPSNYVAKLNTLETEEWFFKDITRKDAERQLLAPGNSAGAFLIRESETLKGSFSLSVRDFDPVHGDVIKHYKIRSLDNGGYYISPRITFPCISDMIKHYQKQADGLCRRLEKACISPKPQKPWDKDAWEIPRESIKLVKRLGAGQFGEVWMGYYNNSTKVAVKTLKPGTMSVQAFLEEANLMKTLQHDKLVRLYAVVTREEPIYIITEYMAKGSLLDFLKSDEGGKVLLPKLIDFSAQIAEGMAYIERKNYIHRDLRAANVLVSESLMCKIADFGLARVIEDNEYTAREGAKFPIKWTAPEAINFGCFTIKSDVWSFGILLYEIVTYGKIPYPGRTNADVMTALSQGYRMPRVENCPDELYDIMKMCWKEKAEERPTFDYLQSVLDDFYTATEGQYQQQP
Sequence of kinases (KINOMEscan panel) (Homo sapiens, UniProt O95747) (O95747 whole entry): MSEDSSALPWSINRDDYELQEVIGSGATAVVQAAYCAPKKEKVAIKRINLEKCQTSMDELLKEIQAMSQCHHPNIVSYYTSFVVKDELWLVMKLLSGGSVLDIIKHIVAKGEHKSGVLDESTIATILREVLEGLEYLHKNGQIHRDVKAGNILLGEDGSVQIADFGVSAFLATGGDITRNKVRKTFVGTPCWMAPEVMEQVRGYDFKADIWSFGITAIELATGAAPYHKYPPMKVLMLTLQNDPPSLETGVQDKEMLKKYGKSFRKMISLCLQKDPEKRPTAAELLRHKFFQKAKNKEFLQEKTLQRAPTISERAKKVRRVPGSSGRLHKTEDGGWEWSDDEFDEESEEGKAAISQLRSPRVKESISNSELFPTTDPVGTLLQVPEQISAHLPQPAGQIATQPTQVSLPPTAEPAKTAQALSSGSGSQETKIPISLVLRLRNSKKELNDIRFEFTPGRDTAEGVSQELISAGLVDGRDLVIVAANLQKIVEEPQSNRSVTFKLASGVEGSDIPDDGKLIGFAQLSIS

`Cc1cccc(-c2nc(Nc3ccncc3)c3ccccc3n2)n1` [NK215]: the “KINOMEscan DCLK2” value in series [1] is listed as 0. For the same compound, in [2], the “KINOMEscan SRC” value is 20. For the same compound, the “KINOMEscan PIK3CA” value in series [3] is reported as 0. The “KINOMEscan PHKG1” value in series [4] is on record as 47. Moreover, in [5], the “KINOMEscan SRMS” value is listed as 0. For the same compound, the “KINOMEscan FGFR4” value in series [6] was 6. Further, in [7], the “KINOMEscan MAP4K3” value is recorded as 0. In addition, the “KINOMEscan OSXR1” value in series [8] is 0. Besides, the “KINOMEscan TXK” value in [9] was 11. Also, in [10], the “KINOMEscan LYN” value is reported as 0.
